Test results taken from patent US7781428B2 (Pfizer Inc., priority 2006, dated 2010).

Target: T1, mineralocorticoid receptor (MR) (Homo sapiens, UniProt P08235)
T1 construct: expressed in transfected cells; host or cells: Huh7 (human liver cells)
T1 sequence (P08235 726-964 limits assumed): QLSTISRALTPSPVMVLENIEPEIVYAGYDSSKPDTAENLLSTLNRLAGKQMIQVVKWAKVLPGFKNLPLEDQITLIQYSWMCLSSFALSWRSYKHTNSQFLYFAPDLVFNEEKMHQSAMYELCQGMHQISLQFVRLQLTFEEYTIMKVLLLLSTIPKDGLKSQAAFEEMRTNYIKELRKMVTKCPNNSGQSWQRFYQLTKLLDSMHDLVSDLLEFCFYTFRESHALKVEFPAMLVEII
Test: Cell-based Gal4 response element-controlled luciferase reporter assay (MR antagonism)
Details: Huh7 human liver cells transfected with Gal4 DBD-MR LBD fusion and luciferase reporter; block of agonist-induced activation; overnight incubation
Excerpt: Method 1: Cell-based Gal4 Response Element-controlled Luciferase Reporter Assay
An in vitro assay can be used to evaluate mineralocorticoid receptor (MR) antagonism by a test compound. […] An agonist of the receptor can bind to and activate the receptor LBD, which activate the expression of the Gal4 response element containing luciferase reporter gene. Antagonists can compete for binding to the receptor LBDs and decrease the transcription activity of the reporter gene. Measurement of luciferase activity allows quantitative determinations of the reporter transcription in the presence of either agonists or agonists and antagonists in combination. β-galactosidase activity, which is unaffected by ligand, is used to normalize the transfection efficiency in the cell population.
Huh7 cells were plated in RPMI1640+10% fetal bovine serum (Invitrogen Corporation, San Diego, Calif.), at 10,000 cells per well in 96-well tissue culture dishes for approximately 24 hours. Cells were then transfected using FuGENE™ 6 Transfection Reagent according to manufacturers' instructions (Roche Molecular Biochemicals, Indianapolis, Ind.). Approximately 20 hours after transfection, media were removed. Cells were washed once with PBS and treated (n=6/group) with agonist for each receptor (all chemicals from Sigma, St. Louis, Mo.), and with compounds. Agonist concentrations represent 70-80% of full activation of each receptor.
Compounds were dissolved in DMSO at 10 mM and diluted to final concentrations in phenol red-free media that contained 10% charcoal- and dextran-stripped serum (Life Technologies, Gathersburg, Md.). Following overnight incubation (18-20 hours) with compounds, the medium was removed and replaced with 100 μL per well of PBS and 100 μL of Steady-Glo™ lysis buffer with luciferase substrate (Promega Corporation, Madison, Wis.). After a 30-minute incubation to completely lyse the cells, 100 μL of the lysate was transferred to a black, Dynatech Microfluor assay plates (Dynex Corporation, Chantilly, Va.) to measure luciferase activity. The plate was sealed with TopSeal self-adhesive film, dark-adapted for 5 minutes, then counted in a TopCount Plate Reader (Packard Instrument Company, Meriden, Conn.) in single photon counting mode. The remaining lysate was used for determination of β-galactosidase activity. In a clear 96-well assay plate, 100 μL of cell lysate was added to 100 μL β-galactosidase assay buffer per well. The assay buffer consisted of 60 mM Na2HPO4, 40 mM NaH2PO4, 10 mM KCl, 1 mM MgSO4, 50 mM β-mercaptoethanol, and 2.5 mg/mL ONPG, the latter two reagents were added just prior to assay (all chemicals from Sigma). The reaction was allowed to proceed until a distinct yellow color developed. Reactions were stopped by the addition of 100 μL per well 1 M Na2CO3 and plates were read at 420 nm in Victor-2 (Perkin Elmer Life Sciences, Boston, Mass.). Values (relative luciferase activity) for each sample were expressed as a ratio of luciferase activity to OD420β-galactosidase activity measured in arbitrary units for each well. […] “b” is the slope, “c” is the IC50 or EC50. “x” is the concentration of the compound and “y” the activity at that concentration.

| IC50 [nM] | SMILES |
| --- | --- |
| 312 | N#Cc1ccc(N2N=C3c4ccc(C(=O)NCCCC(=O)O)cc4CC[C@@H]3[C@@H]2c2ccc(F)cc2)cc1Cl (racemic) [Example 106, (±)-4-((3RS,3aRS)-2-(3-chloro-4-cyanophenyl)-3-(4-fluorophenyl)-3,3a,4,5-tetrahydro-2H-benzo[g]indazole-7-carboxamido)butanoic acid] |
| 4 | Cc1cc(N2N=C3c4ccc(C(=O)O)cc4CC[C@@H]3[C@@H]2C2CCCC2)ccc1C#N (single isomer, unassigned) [Example 22] |
| > 1000 | N#Cc1ccc(N2N=C3c4ccc(O)cc4CC[C@H]3[C@H]2c2ccc(F)cc2)cc1Cl [Example 88, 2-chloro-4-((3S,3aS)-3-(4-fluorophenyl)-7-hydroxy-3,3a,4,5-tetrahydrobenzo[g]indazol-2-yl)benzonitrile] |
| > 1000 | N#Cc1ccc(N2N=C3c4ccc(C(=O)O)cc4CC[C@H]3[C@H]2c2ccco2)cc1Cl [Example 45, (3S,3aS)-2-(3-chloro-4-cyanophenyl)-3-(2-furyl)-3,3a,4,5-tetrahydro-2H-benzo[g]indazole-7-carboxylic acid] |
| 3700 | N#Cc1ccc(N2N=C3c4cc(C(=O)O)ccc4CCC3C2c2ccc(F)cc2)cc1Cl (racemic) [Example 5, 2-(3-chloro-4-cyanophenyl)-3-(4-fluorophenyl)-3,3a,4,5-tetrahydro-2H-benzo[g]indazole-8-carboxylic acid] |
| 588 | CC(C)C1C2COc3cc(C(=O)O)ccc3C2=NN1c1ccc(C#N)c(Cl)c1 (racemic) [Example 74, 2-(3-chloro-4-cyanophenyl)-3-isopropyl-2,3,3a,4-tetrahydrochromeno[4,3-c]pyrazole-7-carboxylic acid] |
| 995 | CS(=O)(=O)NC(=O)c1ccc2c(c1)CC[C@H]1C2=NN(c2ccc(C#N)c(Cl)c2)[C@H]1c1ccc(F)cc1 (racemic) [Example 113, (±)-(3RS,3aRS)-2-(3-chloro-4-cyanophenyl)-3-(4-fluorophenyl)-N-(methylsulfonyl)-3,3a,4,5-tetrahydro-2H-benzo[g]indazole-7-carboxamide] |
| 36 | N#Cc1ccc(N2N=C3c4ccc(O)cc4CC[C@@H]3[C@@H]2c2ccc(F)cc2)cc1Cl [Example 87, 2-chloro-4-((3R,3aR)-3-(4-fluorophenyl)-7-hydroxy-3,3a,4,5-tetrahydrobenzo[g]indazol-2-yl)benzonitrile] |
| 3180 | N#Cc1ccc(N2N=C3c4ccc(C(=O)O)cc4OCC3C2c2ccc(F)cc2)cc1 (racemic) [Example 58, 2-(4-cyanophenyl)-3-(4-fluorophenyl)-2,3,3a,4-tetrahydrochromeno[4,3-c]pyrazole-7-carboxylic acid] |
| > 500 | N#Cc1ccc(N2N=C3c4ccc(C(=O)O)cc4CC[C@@H]3[C@@H]2C2CCCC2)cc1O (racemic) [Example 33] |
| 1070 | CCOC(=O)c1ccc2c(c1)CCC1C2=NN(c2ccc(C#N)c(Cl)c2)C1c1ccc(F)cc1 (centres unmarked) [Example 1, ethyl 2-(3-chloro-4-cyanophenyl)-3-(4-fluorophenyl)-3,3a,4,5-tetrahydro-2H-benzo[g]indazole-7-carboxylate] |
| > 1000 | N#Cc1ccc(N2N=C3c4ccc(C(=O)NCC(=O)NCC(=O)O)cc4CC[C@@H]3[C@@H]2c2ccc(F)cc2)cc1Cl (racemic) [Example 110, (±)-2-(2-((3RS,3aRS)-2-(3-chloro-4-cyanophenyl)-3-(4-fluorophenyl)-3,3a,4,5-tetrahydro-2H-benzo[g]indazole-7-carboxamido)acetamido)acetic acid] |
| 37.6 | N#Cc1ccc(N2N=C3c4ccc(C(=O)O)cc4CC[C@@H]3[C@@H]2C2CCCC2)cc1 [Example 19, (3S,3aR)-2-(4-cyanophenyl)-3-cyclopentyl-3,3a,4,5-tetrahydro-2H-benzo[g]indazole-7-carboxylic acid] |
| 205 | N#Cc1ccc(N2N=C3c4ccc(C(=O)O)cc4OC[C@@H]3[C@@H]2C2CCCC2)cc1 [Example 71, (3S,3aR)-2-(4-cyanophenyl)-3-cyclopentyl-2,3,3a,4-tetrahydrochromeno[4,3-c]pyrazole-7-carboxylic acid] |
| > 10000 | N#Cc1ccc(N2N=C3c4ccc(C(=O)O)cc4CC[C@H]3[C@H]2c2ccc(F)cc2)cc1 [Example 12, (3S,3aS)-2-(4-cyanophenyl)-3-(4-fluorophenyl)-3,3a,4,5-tetrahydro-2H-benzo[g]indazole-7-carboxylic acid] |
| 141 | N#Cc1ccc(N2N=C3c4ccc(C(=O)NCCS(N)(=O)=O)cc4CC[C@@H]3[C@@H]2C2CCOCC2)cc1Cl (racemic) [Example 105, (±)-(3SR,3aRS)—N-[2-(aminosulfonyl)ethyl]-2-(3-chloro-4-cyanophenyl)-3-(tetrahydro-2H-pyran-4-yl)-3,3a,4,5-tetrahydro-2H-benzo[g]indazole-7-carboxamide] |
| 19 | Cc1ncc(C2C3CCc4cc(C(=O)NCCS(C)(=O)=O)ccc4C3=NN2c2ccc(C#N)c(Cl)c2)s1 (centres unmarked) [Example 118, 2-(3-chloro-4-cyanophenyl)-N-[2-(methylsulfonyl)ethyl]-3-(2-methyl-1,3-thiazol-5-yl)-3,3a,4,5-tetrahydro-2H-benzo[g]indazole-7-carboxamide] |
| > 1000 | N#Cc1ccc(N2N=C3c4ccc(C(=O)O)cc4CCC3C2C2CCOCC2)cc1 (racemic) [Example 37, 2-(4-cyanophenyl)-3-(tetrahydro-2H-pyran-4-yl)-3,3a,4,5-tetrahydro-2H-benzo[g]indazole-7-carboxylic acid] |
| 2880 | N#Cc1ccc(N2N=C3c4ccc(C(=O)O)cc4CC[C@H]3[C@H]2C2CCCC2)cc1 [Example 20, (3R,3aS)-2-(4-cyanophenyl)-3-cyclopentyl-3,3a,4,5-tetrahydro-2H-benzo[g]indazole-7-carboxylic acid] |
| 89 | N#Cc1ccc(N2N=C3c4ccc(C(=O)O)cc4CCC3C2C2CCCC2)cc1 (racemic) [Example 18, 2-(4-cyanophenyl)-3-cyclopentyl-3,3a,4,5-tetrahydro-2H-benzo[g]indazole-7-carboxylic acid] |
| 150 | COCc1cc(N2N=C3c4ccc(C(=O)O)cc4CCC3C2C2CCCC2)ccc1C#N (racemic) [Example 28, 2-(4-cyano-3-(methoxymethyl)phenyl)-3-cyclopentyl-3,3a,4,5-tetrahydro-2H-benzo[g] indazole-7-carboxylic acid] |
| 4 | Cc1cc(N2N=C3c4ccc(C(=O)O)cc4CCC3C2C2CCCC2)ccc1C#N (racemic) [Example 21, 2-(4-cyano-3-methylphenyl)-3-cyclopentyl-3,3a,4,5-tetrahydro-2H-benzo[g]indazole-7-carboxylic acid] |
| 906 | N#Cc1ccc(N2N=C3c4ccc(C(=O)O)cc4OCC3C2C2CCCC2)cc1 (racemic) [Example 70, 2-(4-cyanophenyl)-3-cyclopentyl-2,3,3a,4-tetrahydrochromeno[4,3-c]pyrazole-7-carboxylic acid] |

| SMILES | IC50 [nM] |
| --- | --- |
| Cc1ccc([C@@H]2[C@@H]3CCc4cc(C(=O)O)ccc4C3=NN2c2ccc(C#N)c(Cl)c2)o1 [Example 41, (3S,3aS)-2-(3-chloro-4-cyanophenyl)-3-(5-methyl-2-furyl)-3,3a,4,5-tetrahydro-2H-benzo[g]indazole-7-carboxylic acid] | > 1000 |
| C[C@]12CCc3cc(C(=O)O)ccc3C1=NN(c1ccc(C#N)c(Cl)c1)[C@H]2C1CCCC1 [Example 94, (3S,3aR)-2-(3-chloro-4-cyanophenyl)-3-cyclopentyl-3a-methyl-3,3a,4,5-tetrahydro-2H-benzo[g]indazole-7-carboxylic acid] | 25 |
| Cc1ccc([C@H]2[C@H]3CCc4cc(C(=O)O)ccc4C3=NN2c2ccc(C#N)c(Cl)c2)o1 [Example 40, (3R,3aR)-2-(3-chloro-4-cyanophenyl)-3-(5-methyl-2-furyl)-3,3a,4,5-tetrahydro-2H-benzo[g]indazole-7-carboxylic acid] | 6 |
